# Several values for one entry are separate records, joined by “and”; a condition that tells them apart may be missing. Identical values can stand only once.
# Legend:
# MS; CNS lymphomas = settings: cited from earlier work
# [1] = Methotrexate in cerebrospinal fluid (CSF) after infusion; assay type: in vivo; settings: five CSF samples, several patients and time points after infusion of 2 g/m^2
# Experimental: Five samples of cerebrospinal fluid (CSF) were analyzed for methotrexate, representing several patients and several time points after methotrexate infusion of 2 g/m^2.
# relapsing progressive MS = assay: MSFC clinical outcome (9-HPT, 25-ft walk, PASAT) in patients treated with bimonthly high dose IV methotrexate; assay type: in vivo; set-up: 9-HPT change / 25-ft walk change: unit not given here
# Experimental: Ten patients of relapsing progressive MS were treated with bimonthly high dose intravenous methotrexate with leucovorin rescue, combined with interim treatment with low dose immunomodulatory agents.
# (§1) Methotrexate treatments were given every 2 months for up to 6 treatments. Methotrexate was administered by IV at a dosage of 1 g/m^2 for the first three treatments. […] The patients were then switched to doses of 2 g/m^2 of methotrexate for three subsequent treatments. Methotrexate was given after hydration and alkalization, with urine pH 7.0 or greater. The infusion was followed by continued hydration for several hours.
# (§2) Each methotrexate treatment was followed by intravenous leucovorin rescue with 50 mg leucovorin eight hours after the start of the methotrexate infusion. Oral leucovorin (25 mg) was administered every 6 hours for a total of 12 doses after intravenous leucovorin rescue, and the serum methotrexate level measured. If necessary oral leucovorin was continued until the serum level reached 0.05 μM.
# At the time of study entry, all patients were being treated, with interferon (AVONEX® or BETA-SERON®), glatiramer acetate (COPAXONE®), or oral methotrexate. These medications were continued between treatments.
# The clinical outcome was determined by MSFC scores at baseline and at two months follow up visits after each treatment. The MSFC is a clinical outcome measure, which measures three clinical functions involving hand dexterity, walking, and cognition. Two tailed paired t-test was used to compare the results of MSFC.
# [2] = Safety of high dose IV methotrexate with leucovorin rescue in MS patients; assay type: in vivo
# Experimental: as §1, §2
# [3] = cited from earlier work; for crossing of the blood brain barrier (BBB) into the CNS: in vivo
# [4] = after one year of treatment, ten patients
# [5] = all patients together, two tailed paired t-test
# [6] = all patients together, two tailed paired t-test, p<0.05
# [7] = individual patient, change from baseline after one year, IV 1 g/m^2 x3 then 2 g/m^2 x3, every 2 months, leucovorin rescue, interim agent
smiles,measurement,setting,value
"CN(Cc1cnc2nc(N)nc(N)c2n1)c1ccc(C(=O)N[C@@H](CCC(=O)O)C(=O)O)cc1 [Methotrexate, methotrexate]",toxicity of high dose in CNS lymphoma trials,"MS; CNS lymphomas; in vivo, iv",low toxicity
same,toxicity of high dose sporadically administered,"MS; CNS lymphomas; in vivo, iv",no significant toxicity
same,toxicity of low-dose oral treatment in progressive MS,"MS; CNS lymphomas; in vivo, po",minimal toxicity
same,upper extremity strength in MS patients,MS; CNS lymphomas; oral treatments,mild improvement
same,crossing of the BBB (methotrexate in CSF),[1],cross the BBB in cytotoxic amounts
same,MSFC scores of some of the patients,relapsing progressive MS; after 3 treatments at 1 g/m^2,improved significantly
same,maximum increase of overall MSFC,relapsing progressive MS; [4],+1.28
same,minimum increase of overall MSFC,relapsing progressive MS; [4],+0.08
same,clinical assessment with MSFC scores,relapsing progressive MS; after treatment,significant improvement
same,improvement in the 25-ft walk test,relapsing progressive MS; [5],not significant
same,improvement in the PASAT test,relapsing progressive MS; [5],not significant
same,mean nine-hole peg score after treatment,relapsing progressive MS; [6],significant improvement
same,mean overall MSFC score after treatment,relapsing progressive MS; [6],significant improvement
same,9-HPT change,relapsing progressive MS; [7],+0.45 and +0.86 and −0.31 and +0.20 and +0.83 and +0.30 and −0.10 and +0.80 and +1.07 and +0.70
same,25-ft walk change,relapsing progressive MS; [7],+0.04 and 0.00 and −0.01 (2×) and +0.08 and +0.14 and −0.04 and −0.07 and −0.22 and +0.53
same,MSFC change,relapsing progressive MS; [7],+0.38 and +0.31 and +0.25 and +0.18 and +0.13 and +0.09 and +0.08 (2×) and +1.28 and +0.56
same,PASAT change,relapsing progressive MS; [7],+0.66 and +0.08 and +1.08 and +0.25 and −0.58 and 0.00 and +0.41 and −0.33 and +2.24 and +0.99
same,PASAT (cognitive function): patients improved,relapsing progressive MS; of 10,6 patients
same,PASAT (cognitive function): patients turned worse,relapsing progressive MS; of 10,2
same,PASAT (cognitive function): patients unchanged,relapsing progressive MS; of 10,2
same,nine-hole peg test (arm function): patients improved,relapsing progressive MS; of 10,8 patients
same,nine-hole peg test (arm function): patients unchanged,relapsing progressive MS; of 10,1
same,nine-hole peg test (arm function): patients with minor worsening,relapsing progressive MS; of 10,1 patient
same,timed 25-ft walk (leg function): patients unchanged,relapsing progressive MS; of 10,7
same,timed 25-ft walk (leg function): patients with improvement,relapsing progressive MS; of 10,2 patients
same,timed 25-ft walk (leg function): patients with slight worsening,relapsing progressive MS; of 10,1
same,patients improved on MSFC,"relapsing progressive MS; of 10, after one year, change >+0.1",seven
same,patients unchanged on MSFC,"relapsing progressive MS; of 10, after one year, change less than 0.1",three
same,deterioration of symptoms of progressive MS,relapsing progressive MS; periodic high dose with leucovorin rescue and interim treatments,halted the deterioration of the symptoms in every patient treated
same,tolerability,"[2]; IV 1 g/m^2, first three treatments",well tolerated
same,renal toxicity,"[2]; after one treatment, 2-week follow up creatinine clearance within acceptable limits",one patient experienced Grade I renal toxicity
same,alopecia,[2]; ten patients,No alopecia was noted
same,hematological toxicity,"[2]; ten patients, up to 6 treatments",No hematological toxicity was observed
same,nausea,"[2]; ten patients, easily treated with Zofran",Five patients experienced some nausea
same,serum level relative to crossing the BBB,[3]; administered orally,not sufficient to cross the BBB in cytotoxic amounts
Nc1nc2c(c(=O)[nH]1)N(C=O)C(CNc1ccc(C(=O)N[C@@H](CCC(=O)O)C(=O)O)cc1)CN2 (some centres unmarked) [leucovorin],crossing of the blood brain barrier (BBB) into the CNS,[3],does not penetrate the BBB
O=C1c2c(O)ccc(O)c2C(=O)c2c(NCCNCCO)ccc(NCCNCCO)c21 [mitoxantrone],efficacy against the progression of MS,MS; CNS lymphomas; in vivo,some efficacy
same,toxicity limiting use,MS; CNS lymphomas; in vivo,limited lifetime use due to toxicity
same,crossing of the blood brain barrier (BBB) into the CNS,[3],do not cross the blood brain barrier
O=P1(N(CCCl)CCCl)NCCCO1 (centres unmarked) [cyclophosphamide],efficacy against the progression of MS,MS; CNS lymphomas; in vivo,some efficacy
same,crossing of the blood brain barrier (BBB) into the CNS,[3],do not cross the blood brain barrier

# — patent publication US6903100B2, “USE OF REGULARLY SCHEDULED HIGH DOSE INTRAVENOUS METHOTREXATE THERAPY, WITH INTERIM ADMINISTRATION OF IMMUNOMODULATORY AGENTS, TO TREAT MULTIPLE SCLEROSIS AND OTHER DISEASES OF THE CENTRAL NERVOUS SYSTEM” (MidAmerica Neuroscience Research Foundation, priority 2001, dated 2005)
